Patent US7435837B2, “Dihydrobenzofuranyl alkanamine derivatives and methods for using same” (Wyeth, priority 2003, dated 2008)
Like-named read-outs stand apart in the source and are kept apart here.

Target: T1, human 5-HT2C receptor (Homo sapiens, UniProt P28335)
T1 sequence (P28335 33-458): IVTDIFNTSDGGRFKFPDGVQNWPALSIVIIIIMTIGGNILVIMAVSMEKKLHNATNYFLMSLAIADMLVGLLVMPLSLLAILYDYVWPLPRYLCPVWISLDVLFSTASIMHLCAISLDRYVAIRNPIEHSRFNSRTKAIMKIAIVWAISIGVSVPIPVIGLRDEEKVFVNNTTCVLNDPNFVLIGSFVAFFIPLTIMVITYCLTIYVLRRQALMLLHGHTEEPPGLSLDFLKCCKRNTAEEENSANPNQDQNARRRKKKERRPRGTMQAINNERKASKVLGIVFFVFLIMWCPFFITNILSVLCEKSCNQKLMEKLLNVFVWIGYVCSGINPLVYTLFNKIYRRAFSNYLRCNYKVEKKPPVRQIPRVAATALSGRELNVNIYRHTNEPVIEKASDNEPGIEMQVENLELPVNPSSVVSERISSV
Assay: 5-HT2C receptor-stimulated calcium mobilization (FLIPR) in CHO cells;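 further: Fluo-3-AM fluorescence read on FLIPR every 1 s, agonist added after 10 baseline reads, response taken as peak minus lowest raw fluorescence count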
Format: cell-based
Conditions: for EC50: calcium mobilization, CHO cells stably expressing human 5-HT2C, read-out: 5-HT2C Function EC50; for Emax: CHO

[1] = percentage of the response observed with a maximally effective concentration of 5-HT
[2] = percentage of the response observed with a maximally effective concentration of 5-HT, read-out: 5-HT2C Function Emax (%)

| EC50 | 5-HT2C Function Emax (%) [1] | Emax [2] | Compound | Emax (read-out: 5-HT2C Function Emax (%), percentage of the response observed with a maximally effective concentration of 5-HT) |
| --- | --- | --- | --- | --- |
| 313 nM | 70% |  | Cc1cccc(C)c1-c1cc(F)cc2c1OC(CN)C2 (single isomer, unassigned; (+)) [Example 228, (+)-{[7-(2,6-dimethylphenyl)-5-fluoro-2,3-dihydro-1-benzofuran-2-yl]methyl}amine] |  |
| 462 nM |  | 70% | CNCC1Cc2cc(Cl)cc(-c3cccc(Cl)c3Cl)c2O1 (racemic) [Example 464, (±)-{[5-chloro-7-(2,3-dichlorophenyl)-2,3-dihydro-1-benzofuran-2-yl]methyl}methylamine] |  |
| 3 nM |  | 70% | CNCC1Cc2cc(C)cc(-c3cccc(OC)c3OC)c2O1 (single isomer, unassigned; (+)) [Example 566, (+)-{[7-(2,3-dimethoxyphenyl)-5-methyl-2,3-dihydro-1-benzofuran-2-yl]methyl}methylamine] |  |
| 55 nM |  | 70% | CNCC1Cc2cc(Cl)cc(-c3cccc(OC)c3OC)c2O1 (racemic) [Example 466, (±)-{[5-chloro-7-(2,3-dimethoxyphenyl)-2,3-dihydro-1-benzofuran-2-yl]methyl}methylamine] |  |
| 89 nM |  | 70% | Fc1cc2c(c(-c3c(Cl)cccc3Cl)c1)OC(CN1CCCC1)C2 (racemic) [Example 240, (±)-1-{[7-(2,6-dichlorophenyl)-5-fluoro-2,3-dihydro-1-benzofuran-2-yl]methyl}pyrrolidine] |  |
| 14 nM |  | 90% | CNCC1Cc2cc(Cl)cc(-c3cc(Cl)ccc3Cl)c2O1 (racemic) [Example 471, (±)-{[5-chloro-7-(2,5-dichlorophenyl)-2,3-dihydro-1-benzofuran-2-yl]methyl}methylamine] |  |
| 289 nM |  | 70% | CNCC1Cc2cc(Cl)cc(-c3cc(F)ccc3F)c2O1 (racemic) [Example 470, (±)-{[5-chloro-7-(2,5-difluorophenyl)-2,3-dihydro-1-benzofuran-2-yl]methyl}methylamine] |  |
| 114 nM |  | 50% | Fc1cc2c(c(-c3c(Cl)cccc3Cl)c1)OC(CNCC1CC1)C2 (racemic) [Example 232, (±)-1-cyclopropyl-N-{[7-(2,6-dichlorophenyl)-5-fluoro-2,3-dihydro-1-benzofuran-2-yl]methyl}methanamine] |  |
| 63 nM |  | 90% | CNCC1Cc2cccc(-c3cc(Cl)ccc3C)c2O1 (racemic) [Example 431, (±)-[(N-methyl-1-[7-(5-chloro-2-methylphenyl)-2,3-dihydro-1-benzofuran-2-yl]methanamine] |  |
| 65 nM |  | 90% | Cc1cccc(-c2cccc3c2OC(CN)C3)c1C (racemic) [Example 154, (±)-1-[7-(2,3-dimethylphenyl)-2,3-dihydro-1-benzofuran-2-yl]methanamine] |  |
| 49 nM |  | 50% | CCCNCC1Cc2cc(F)cc(-c3c(Cl)cccc3Cl)c2O1 (racemic) [Example 235, (±)-N-{[7-(2,6-dichlorophenyl)-5-fluoro-2,3-dihydro-1-benzofuran-2-yl]methyl}propan-1-amine] |  |
| 123 nM |  | 70% | CC(C)NCC1Cc2cc(F)cc(-c3c(Cl)cccc3Cl)c2O1 (racemic) [Example 236, (±)-N-{[7-(2,6-dichlorophenyl)-5-fluoro-2,3-dihydro-1-benzofuran-2-yl]methyl}propan-2-amine] |  |
| 9 nM | 60% |  | CNCC1Cc2cc(C)cc(-c3cccc(OC)c3OC)c2O1 (single isomer, unassigned; (-)) [Example 567, (−)-{[7-(2,3-dimethoxyphenyl)-5-methyl-2,3-dihydro-1-benzofuran-2-yl]methyl}methylamine] |  |
| 6 nM | 60% |  | CNCC1Cc2cc(F)cc(-c3cccc(OC)c3OC)c2O1 (single isomer, unassigned; (+)) [Example 569, (+)-{[7-(2,3-dimethoxyphenyl)-5-fluoro-2,3-dihydro-1-benzofuran-2-yl]methyl}methylamine] |  |
| 283 nM | 90% |  | COc1cc2c(c(-c3cc(Cl)ccc3Cl)c1)OC(CN)C2 (single isomer, unassigned; (-)) [Example 369, (−)-{[7-(2,5-dichlorophenyl)-5-methoxy-2,3-dihydro-1-benzofuran-2-yl]methyl}amine] |  |
| 50 nM | 80% |  | COc1cccc(-c2cc(C)cc3c2OC(CN)C3)c1OC (single isomer, unassigned; (+)) [Example 296, (+)-{[7-(2,3-dimethoxyphenyl)-5-methyl-2,3-dihydro-1-benzofuran-2-yl]methyl}amine] |  |

| EC50 | 5-HT2C Function Emax (%) [1] | Emax [2] | Compound | Emax (read-out: 5-HT2C Function Emax (%), percentage of the response observed with a maximally effective concentration of 5-HT) |
| --- | --- | --- | --- | --- |
| 614 nM |  | 20% | Fc1cc2c(c(-c3c(Cl)cccc3Cl)c1)OC(CNC1CCC1)C2 (racemic) [Example 233, (±)-N-{[7-(2,6-dichlorophenyl)-5-fluoro-2,3-dihydro-1-benzofuran-2-yl]methyl}cyclobutanamine] |  |
| 11 nM |  | 90% | CCNCC1Cc2cc(F)cc(-c3c(Cl)cccc3Cl)c2O1 (racemic) [Example 234, (±)-N-{[7-(2,6-dichlorophenyl)-5-fluoro-2,3-dihydro-1-benzofuran-2-yl]methyl}ethanamine] |  |
| 21 nM |  | 80% | CNCC1Cc2cc(Cl)cc(-c3ccc(OC)cc3OC)c2O1 (racemic) [Example 469, (±)-{[5-chloro-7-(2,4-dimethoxyphenyl)-2,3-dihydro-1-benzofuran-2-yl]methyl}methylamine] |  |
| 298 nM |  | 80% | CNCC1Cc2cccc(-c3cc(C)ccc3C)c2O1 (racemic) [Example 427, (±)-[(N-methyl-1-[7-(2,5-dimethylphenyl)-2,3-dihydro-1-benzofuran-2-yl]methanamine] |  |
| 5120 nM |  | 20% | Cc1cccc(C)c1-c1cc(Cl)cc2c1OC(CNC1CCC1)C2 (racemic) [Example 269, (±)-N-{[5-chloro-7-(2,6-dimethylphenyl)-2,3-dihydro-1-benzofuran-2-yl]methyl}cyclobutanamine] |  |
| 448 nM |  | 80% | CNCC1Cc2cccc(-c3cc(Cl)ccc3OC)c2O1 (racemic) [Example 430, (±)-[(N-methyl-1-[7-(5-chloro-2-methoxyphenyl)-2,3-dihydro-1-benzofuran-2-yl]methanamine] |  |
| 529 nM |  | 40% | Fc1cc2c(c(-c3c(Cl)cccc3Cl)c1)OC(CN1CCCCC1)C2 (racemic) [Example 238, (±)-1-{[7-(2,6-dichlorophenyl)-5-fluoro-2,3-dihydro-1-benzofuran-2-yl]methyl}piperidine] |  |
| 24 nM |  | 80% | CNCC1Cc2cc(F)cc(-c3c(C)cccc3C)c2O1 (racemic) [Example 453, (±)-{[7-(2,6-dimethylphenyl)-5-fluoro-2,3-dihydro-1-benzofuran-2-yl]methyl}methylamine] |  |
| 49 nM |  | 90% | CNCC1Cc2cccc(-c3ccc(F)cc3F)c2O1 (racemic) [Example 424, (±)-[(N-methyl-1-[7-(2,4-difluorophenyl)-2,3-dihydro-1-benzofuran-2-yl]methanamine] |  |
| 0.4 nM |  | 80% | Fc1cc2c(c(-c3c(Cl)cccc3Cl)c1)OC(CNC1CC1)C2 (racemic) [Example 231, (±)-N-{[7-(2,6-dichlorophenyl)-5-fluoro-2,3-dihydro-1-benzofuran-2-yl]methyl}cyclopropanamine] |  |
| 961 nM |  | 50% | Cc1cccc(C)c1-c1cc(Cl)cc2c1OC(CNCC1CC1)C2 (racemic) [Example 268, (±)-N-{[5-chloro-7-(2,6-dimethylphenyl)-2,3-dihydro-1-benzofuran-2-yl]methyl}(cyclopropylmethyl)amine] |  |
| 43 nM |  | 90% | CNCC1Cc2cc(Cl)cc(-c3c(C)cccc3C)c2O1 (single isomer, unassigned; (-)) [Example 564, (−)-{[5-chloro-7-(2,6-dimethylphenyl)-2,3-dihydro-1-benzofuran-2-yl]methyl}methylamine] |  |
| 17 nM |  | 100% | CNCC1Cc2cccc(-c3ccc(OC)cc3OC)c2O1 (racemic) [Example 426, (±)-[(N-methyl-1-[7-(2,4-dimethoxyphenyl)-2,3-dihydro-1-benzofuran-2-yl]methanamine] |  |
| 730 nM |  | 80% | Cc1cccc(C)c1-c1cc(Cl)cc2c1OC(CNC1CC1)C2 (racemic) [Example 267, (±)-N-{[5-chloro-7-(2,6-dimethylphenyl)-2,3-dihydro-1-benzofuran-2-yl]methyl}cyclopropanamine] |  |
| 496 nM |  | 60% | CNCC1Cc2cc(Cl)cc(-c3cccc(C)c3C)c2O1 (racemic) [Example 465, (±)-{[5-chloro-7-(2,3-dimethylphenyl)-2,3-dihydro-1-benzofuran-2-yl]methyl}methylamine] |  |

| Compound | EC50 | 5-HT2C Function Emax (%) [1] | Emax [2] | Emax (read-out: 5-HT2C Function Emax (%), percentage of the response observed with a maximally effective concentration of 5-HT) |
| --- | --- | --- | --- | --- |
| CNCC1Cc2cc(F)cc(-c3ccc(Cl)cc3Cl)c2O1 (single isomer, unassigned; (+)) [Example 447] | 3 nM | 90% |  |  |
| CNCC1Cc2cc(F)cc(-c3ccc(Cl)cc3Cl)c2O1 (single isomer, unassigned; (-)) [Example 446] | 460 nM |  |  | 70% |
